According to PMC10472371, “Discovery of E2730, a novel selective uncompetitive GAT1 inhibitor, as a candidate for anti‐seizure medication” (Epilepsia Open, 2023):
“Also recorded” adds a separate entry of the source.

What was measured:
[1] = system: brain synaptosomal membranes of GAT1-deficient mice; assay: [3H]E2730 binding in GAT1-deficient mouse brain; settings: 200 nM [3H]E2730
Method: Synaptosomal membrane extract was prepared from homozygous γ‐aminobutyric acid (GABA) transporter 1 (GAT1) KO (Homo), heterozygous GAT1 KO (Hetero), and the littermate wild‐type (WT) mice (male, 10 weeks old) using the same approach as described above. Synaptosomal membrane extract (0.4 mg protein/tube) was incubated with 200 nM [^3H]E2730 for 120 minutes at 4°C. Non‐specific binding was defined as the residual binding observed in the presence of 1 mM unlabeled E2730. The radioactivity of the synaptosome‐bound radioligand was measured in the same way as described above.

[2] = Accelerating rotarod test in mice (motor coordination); settings: male, ddY, mouse, in vivo, oral, 1 hour before test, read-out: TD50 (95% CI) in mouse rotarod test
Method: Motor incoordination is one of the most common AEs associated with the use of ASMs.[9] Therefore, motor coordination was evaluated in mice receiving E2730 to assess if it is a new ASM candidate with a wide margin between therapeutic effects and AEs. E2730 (50–400 mg/kg) or vehicle was orally administered in ddY mice (male, 5 weeks old) 1 hour before the rotarod test, and the latency for mice to fall off the rod was measured. The rod rotation of the rotarod apparatus (Muromachi Kikai) was continuously accelerated from 0 to 40 rpm in a cut‐off time of 180 seconds.

hBGT-1 = target: T1, hBGT-1 (Homo sapiens, UniProt P48065); assay: [3H]GABA uptake in hBGT-1 stably expressing HEK293 cells; format: cell-based; settings: hBGT-1 HEK293 cells, 50 μM [3H]GABA
T1 construct: expressed in transfected cells; host or cells: HEK293
T1 sequence (P48065 1-614): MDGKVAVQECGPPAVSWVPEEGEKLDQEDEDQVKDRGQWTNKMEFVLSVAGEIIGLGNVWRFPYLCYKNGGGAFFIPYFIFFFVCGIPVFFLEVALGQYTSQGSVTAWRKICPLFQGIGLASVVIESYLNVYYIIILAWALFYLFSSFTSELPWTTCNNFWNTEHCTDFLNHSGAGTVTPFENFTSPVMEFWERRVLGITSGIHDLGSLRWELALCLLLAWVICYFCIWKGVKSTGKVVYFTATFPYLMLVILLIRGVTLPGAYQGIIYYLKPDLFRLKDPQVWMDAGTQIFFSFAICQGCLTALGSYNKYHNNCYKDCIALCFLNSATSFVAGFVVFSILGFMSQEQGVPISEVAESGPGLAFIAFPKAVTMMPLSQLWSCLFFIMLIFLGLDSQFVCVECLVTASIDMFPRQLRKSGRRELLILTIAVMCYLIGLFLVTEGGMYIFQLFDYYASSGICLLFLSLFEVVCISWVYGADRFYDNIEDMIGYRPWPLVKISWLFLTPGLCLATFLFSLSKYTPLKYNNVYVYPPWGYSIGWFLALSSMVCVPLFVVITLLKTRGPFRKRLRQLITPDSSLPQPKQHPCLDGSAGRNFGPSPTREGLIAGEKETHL
Method: HEK293 cells stably expressing human GAT1 (hGAT1), GAT2 (hGAT2), GAT3 (hGAT3), or betaine/GABA transporter 1 (hBGT‐1) were plated onto 96‐well microtiter plates at a density of 4.0 × 10^4 cells/well in Dulbecco's Modified Eagle's Medium (DMEM, containing 10% fetal bovine serum, 100 units/mL penicillin, 100 μg/mL streptomycin, 1% non‐essential amino acid solution, and 25 mM HEPES) and incubated overnight at 37°C in a 5% CO2 atmosphere. After washing the cells with Hanks’ balanced salt solution (HBSS, containing 140 mg/L CaCl2, 100 mg/L MgCl2, 20 mM HEPES, and 10 mM NaOH), E2730 (0.0128–1000 μM) was added to the plate. Following the addition of 50 μM [^3H]GABA, cells were incubated for 5 minutes at 37°C in a 5% CO2 atmosphere and then washed with cold HBSS. Washed cells were incubated in a scintillator for 1 hour at room temperature, followed by radioactivity measurements using a liquid scintillation counter.

[3] = target: T2, hGABAAR (containing α1, β3, and γ2 subunits) (Homo sapiens, UniProt P14867+P18507+P28472); assay: GABA-induced current in hGABAAR-expressing HEK-293 cells, whole-cell patch-clamp; format: cell-based; settings: up to 100 μM
T2 construct: expressed in transfected cells; host or cells: HEK-293
Method: Data represent the mean ± SEM of 3 independent experiments. Control response is GABA (13 μM)-induced current amplitude. […] Cells in voltage clamp were maintained at -80 mV throughout the experiments following the voltage protocol.

hNav1.2 = target: T3, hNav1.2 (Homo sapiens, UniProt Q99250); assay: Veratridine-induced hNav1.2 activation in CHO cells, membrane potential assay; format: cell-based; settings: up to 100 μM, veratridine 50 μM
T3 construct: expressed in transfected cells; host or cells: CHO
Method: Data represent the mean ± SEM of three independent experiments. Effects of E2730 and desipramine (Sigma-Aldrich, MO) on hNav1.2 activity were evaluated in CHO cells stably expressing hNav1.2 using a fluorescent-based membrane potential assay (Molecular Devices, CA). Activation of hNav1.2 was induced by veratridine (50 μM) and the change of fluorescence (excitation wavelength, 480 nm; emission wavelength, 540 nm) was recorded using Fluorescence Drug Screening System 6000 (Hamamatsu Photonics, Japan).

hGAT1 = target: T4, hGAT1 (Homo sapiens, UniProt P30531); assay: [3H]GABA uptake in hGAT1 cells under different GABA concentrations; format: cell-based; settings: [3H]GABA 0.01-500 μM
T4 construct: expressed in transfected cells; host or cells: HEK293
Method: hGAT1 stably expressing HEK293 cells were plated onto 96‐well microtiter plates at a density of 4.0 × 10^4 cells/well in DMEM and incubated overnight at 37°C in a 5% CO2 atmosphere. After washing the cells with assay buffer, E2730 (0.0128–1000 μM), tiagabine (Tokyo Chemical Industry; 0.000256–100 μM), or vehicle was added to the plate in the presence of 1% DMSO. After adding [^3H]GABA (0.01–500 μM), the plate was incubated for 5 minutes at 37°C in a 5% CO2 atmosphere. The radioactivity of the treated cells was assessed following the same method described above.

Fmr1 KO mice = assay: Audiogenic seizures in Fmr1 knockout mice (fragile X syndrome model); format: in vivo; settings: Mus musculus, oral, 1 hour before audio stimulation, read-out: ED50 (95% CI) for tonic-clonic seizures, audiogenic seizures
Method: Fragile X syndrome (FXS) is the most common single‐gene cause of autism spectrum disorder, typically due to mutations in the FMR1 gene; 10–18% of patients with FXS experience seizures.[8] The Fmr1 knockout (KO) mouse is an established animal model for FXS. E2730 (2.5–300 mg/kg) or vehicle was orally administered to Fmr1 KO mice (male, 20–27 days postnatal; Jackson Laboratory) 1 hour prior to drug evaluation. The mice were placed in a sound‐attenuating acoustic chamber and acclimated for 5 minutes and exposed to an audio stimulation (110 dB, 60‐second duration), and the behavior of the stimulated mice was video recorded and monitored for tonic–clonic seizures.

T2 sequence (P14867 28-456): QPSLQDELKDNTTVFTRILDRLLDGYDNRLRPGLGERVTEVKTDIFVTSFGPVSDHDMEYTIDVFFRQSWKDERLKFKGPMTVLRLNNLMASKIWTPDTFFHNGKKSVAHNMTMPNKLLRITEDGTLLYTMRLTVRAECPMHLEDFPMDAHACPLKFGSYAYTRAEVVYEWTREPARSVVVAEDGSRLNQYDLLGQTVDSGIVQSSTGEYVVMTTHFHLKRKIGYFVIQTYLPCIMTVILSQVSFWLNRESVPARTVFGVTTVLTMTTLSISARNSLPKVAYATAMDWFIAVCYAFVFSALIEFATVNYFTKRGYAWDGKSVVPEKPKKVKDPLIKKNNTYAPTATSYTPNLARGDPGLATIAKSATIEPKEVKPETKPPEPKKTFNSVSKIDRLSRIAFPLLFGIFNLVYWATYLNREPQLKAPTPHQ
T2 sequence (P28472 26-473): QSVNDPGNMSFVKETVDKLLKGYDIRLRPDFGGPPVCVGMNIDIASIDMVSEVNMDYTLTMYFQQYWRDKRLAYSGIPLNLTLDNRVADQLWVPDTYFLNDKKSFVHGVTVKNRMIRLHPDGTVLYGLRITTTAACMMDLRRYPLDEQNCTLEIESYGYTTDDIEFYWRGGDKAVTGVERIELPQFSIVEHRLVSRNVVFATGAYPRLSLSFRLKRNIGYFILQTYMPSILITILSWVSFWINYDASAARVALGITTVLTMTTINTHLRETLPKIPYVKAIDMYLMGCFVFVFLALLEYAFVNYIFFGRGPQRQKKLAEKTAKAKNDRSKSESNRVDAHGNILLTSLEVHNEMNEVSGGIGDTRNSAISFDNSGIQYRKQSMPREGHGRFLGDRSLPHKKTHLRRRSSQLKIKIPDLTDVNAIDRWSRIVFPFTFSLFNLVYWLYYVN
T2 sequence (P18507 40-475): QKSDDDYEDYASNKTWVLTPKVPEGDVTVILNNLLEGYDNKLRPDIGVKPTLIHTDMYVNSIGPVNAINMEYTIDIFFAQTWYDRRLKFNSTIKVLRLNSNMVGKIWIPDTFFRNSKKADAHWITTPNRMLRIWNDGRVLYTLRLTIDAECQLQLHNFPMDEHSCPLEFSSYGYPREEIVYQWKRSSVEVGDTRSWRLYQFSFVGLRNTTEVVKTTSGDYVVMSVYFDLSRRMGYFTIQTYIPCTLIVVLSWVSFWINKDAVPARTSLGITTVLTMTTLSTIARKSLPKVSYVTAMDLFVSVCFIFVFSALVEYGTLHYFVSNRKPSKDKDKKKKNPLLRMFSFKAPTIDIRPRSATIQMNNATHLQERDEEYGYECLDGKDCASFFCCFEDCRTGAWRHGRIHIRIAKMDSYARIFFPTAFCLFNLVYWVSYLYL
T3 sequence (Q99250 whole entry): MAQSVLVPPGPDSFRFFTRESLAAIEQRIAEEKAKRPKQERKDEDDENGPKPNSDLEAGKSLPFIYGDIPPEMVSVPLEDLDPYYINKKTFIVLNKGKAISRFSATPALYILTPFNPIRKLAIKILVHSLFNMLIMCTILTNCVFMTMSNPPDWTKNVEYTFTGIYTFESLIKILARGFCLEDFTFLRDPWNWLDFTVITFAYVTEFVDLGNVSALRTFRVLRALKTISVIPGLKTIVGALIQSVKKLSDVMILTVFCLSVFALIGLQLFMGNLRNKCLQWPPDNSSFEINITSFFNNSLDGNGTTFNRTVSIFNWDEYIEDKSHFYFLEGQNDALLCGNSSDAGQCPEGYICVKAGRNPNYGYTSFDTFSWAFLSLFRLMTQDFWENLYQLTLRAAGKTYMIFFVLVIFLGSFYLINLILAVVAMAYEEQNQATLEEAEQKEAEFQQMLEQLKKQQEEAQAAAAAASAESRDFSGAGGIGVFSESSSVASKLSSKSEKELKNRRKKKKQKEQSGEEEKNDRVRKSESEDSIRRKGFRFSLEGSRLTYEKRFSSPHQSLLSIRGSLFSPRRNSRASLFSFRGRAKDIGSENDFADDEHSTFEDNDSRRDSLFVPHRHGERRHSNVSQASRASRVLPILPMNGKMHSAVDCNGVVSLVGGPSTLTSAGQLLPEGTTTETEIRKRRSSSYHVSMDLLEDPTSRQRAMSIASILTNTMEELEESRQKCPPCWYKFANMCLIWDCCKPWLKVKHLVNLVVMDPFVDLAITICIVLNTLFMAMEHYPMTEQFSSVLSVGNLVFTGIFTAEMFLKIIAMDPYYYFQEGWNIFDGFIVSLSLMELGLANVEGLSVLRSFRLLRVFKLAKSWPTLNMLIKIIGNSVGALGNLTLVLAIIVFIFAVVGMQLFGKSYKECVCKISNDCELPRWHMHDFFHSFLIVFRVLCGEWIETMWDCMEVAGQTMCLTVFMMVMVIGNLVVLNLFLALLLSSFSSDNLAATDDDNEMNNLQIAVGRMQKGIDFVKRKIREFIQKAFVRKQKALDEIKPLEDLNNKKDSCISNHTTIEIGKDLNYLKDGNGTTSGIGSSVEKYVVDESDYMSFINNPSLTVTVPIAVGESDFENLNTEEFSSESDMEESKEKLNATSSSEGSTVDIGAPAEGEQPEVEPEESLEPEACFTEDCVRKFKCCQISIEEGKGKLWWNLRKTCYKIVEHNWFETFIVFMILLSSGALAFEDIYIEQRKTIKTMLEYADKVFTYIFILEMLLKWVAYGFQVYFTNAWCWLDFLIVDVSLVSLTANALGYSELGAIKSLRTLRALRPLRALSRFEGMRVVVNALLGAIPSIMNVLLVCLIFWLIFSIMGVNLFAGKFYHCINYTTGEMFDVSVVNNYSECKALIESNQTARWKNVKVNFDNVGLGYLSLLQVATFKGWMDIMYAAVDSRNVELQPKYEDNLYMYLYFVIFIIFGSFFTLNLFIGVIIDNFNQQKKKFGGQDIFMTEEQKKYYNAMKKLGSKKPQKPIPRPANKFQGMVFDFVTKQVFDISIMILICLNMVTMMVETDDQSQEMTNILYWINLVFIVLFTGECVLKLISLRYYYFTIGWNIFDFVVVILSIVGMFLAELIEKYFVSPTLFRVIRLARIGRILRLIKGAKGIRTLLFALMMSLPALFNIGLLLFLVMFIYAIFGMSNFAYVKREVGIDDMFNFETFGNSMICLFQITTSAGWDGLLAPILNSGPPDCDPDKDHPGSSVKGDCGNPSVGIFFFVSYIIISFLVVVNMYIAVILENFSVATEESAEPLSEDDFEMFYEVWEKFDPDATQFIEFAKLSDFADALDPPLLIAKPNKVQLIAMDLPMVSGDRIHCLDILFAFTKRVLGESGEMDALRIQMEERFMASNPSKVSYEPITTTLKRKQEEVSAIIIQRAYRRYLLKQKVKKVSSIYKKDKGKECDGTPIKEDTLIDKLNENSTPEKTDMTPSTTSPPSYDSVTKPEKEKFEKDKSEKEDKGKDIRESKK
T4 sequence (P30531 whole entry): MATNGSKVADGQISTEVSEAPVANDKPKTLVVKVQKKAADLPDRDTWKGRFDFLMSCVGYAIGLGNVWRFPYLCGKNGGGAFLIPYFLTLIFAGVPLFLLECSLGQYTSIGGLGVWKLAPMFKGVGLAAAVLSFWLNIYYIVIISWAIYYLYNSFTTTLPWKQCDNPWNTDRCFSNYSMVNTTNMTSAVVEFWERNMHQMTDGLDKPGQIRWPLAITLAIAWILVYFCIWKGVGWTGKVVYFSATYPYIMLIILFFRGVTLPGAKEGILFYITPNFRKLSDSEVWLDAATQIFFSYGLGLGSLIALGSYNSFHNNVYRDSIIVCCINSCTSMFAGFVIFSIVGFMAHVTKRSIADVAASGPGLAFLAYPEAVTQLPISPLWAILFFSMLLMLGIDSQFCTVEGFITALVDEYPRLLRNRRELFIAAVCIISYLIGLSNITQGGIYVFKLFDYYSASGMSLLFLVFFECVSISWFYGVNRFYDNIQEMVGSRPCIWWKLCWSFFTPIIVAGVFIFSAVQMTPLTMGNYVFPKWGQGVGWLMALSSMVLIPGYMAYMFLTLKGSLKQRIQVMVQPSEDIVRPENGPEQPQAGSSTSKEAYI

For `NS(=O)(=O)N[C@H]1c2c(F)cc(F)cc2CC1(F)F` [E2730], which “proportion of bound [3H]E2730 relative to WT mice” value ([1]; heterozygous GAT1 KO (Hetero) mice) is on record?
Its value is 54.0%.

What about the “proportion of bound [3H]E2730 relative to WT mice” value ([1]; homozygous GAT1 KO (Homo) mice) of the same compound?
Its value is 8.0%.

And the TD50 at 1 h [2]?
The TD50 at 1 h was 350 mg/kg.

What about the IC50 (hBGT-1) of the same compound?
Its IC50 is 890 µM.

What about the “effect on GABA-induced current” value [3] of the same compound?
Its value is “did not directly affect”.

What about the “effect on hNav1.2 activation” value (hNav1.2) of the same compound?
The value was “did not inhibit; also recorded: did not directly affect”.

And the “dependence of GAT1 inhibition on ambient GABA concentration” value (hGAT1)?
Its value is “positively correlated with the ambient GABA concentration”.

What about the ED50 (Fmr1 KO mice) of the same compound?
The ED50 was 17.1 mg/kg.
